pEC50: −log10 of the molar value. Where two headings read alike, the source gives them in different places.
What was measured:
M9 ENL1 cell line = experiment: Anti-leukemic activity, Annexin V/7-AAD flow cytometry; type: cell-based; settings: 24 h of drug exposure, read-out: M9ENL1 (EC50)
Protocol: (§1) The newly synthesized triazole derivatives of melampomagnolide B were screened for anti-leukemic activity against M9 ENL1 and primary AML cell lines; the latter were obtained with informed consent from human patients. Evaluations were performed after 24 h of drug exposure using flow cytometric analysis by labeling with Annexin V and 7-aminoactinomycin D (7-AAD) to delineate apoptotic cell populations. In all experiments PTL was included as a reference control.

SW-620 = experiment: NCI 60 growth inhibition; type: cell-based, human; settings: SW-620, Colon Cancer
MDA-MB-231/ATCC = experiment: NCI 60 growth inhibition; type: cell-based, human; settings: Breast Cancer
SK-OV-3 = experiment: NCI 60 growth inhibition; type: cell-based, human; settings: SK-OV-3, Ovarian Cancer
SF-539 = experiment: NCI 60 growth inhibition; type: cell-based, human; settings: SF-539, CNS Cancer
SF-268 = experiment: NCI 60 growth inhibition; type: cell-based, human; settings: SF-268, CNS Cancer
CCRF-CEM = experiment: NCI 60 growth inhibition; type: cell-based, human; settings: Leukemia
MOLT-4 = experiment: NCI 60 growth inhibition; type: cell-based, human; settings: MOLT-4, Leukemia
MDA-MB-468 = experiment: NCI 60 growth inhibition; type: cell-based, human; settings: MDA-MB-468, Breast Cancer
HT29 = experiment: NCI 60 growth inhibition; type: cell-based, human
BT-549 = experiment: NCI 60 growth inhibition; type: cell-based, human; settings: BT-549, Breast Cancer
OVCAR-5 = experiment: NCI 60 growth inhibition; type: cell-based, human; settings: OVCAR-5, Ovarian Cancer
ACHN = experiment: NCI 60 growth inhibition; type: cell-based, human; settings: Renal Cancer
MALME-3M = experiment: NCI 60 growth inhibition; type: cell-based, human; settings: Melanoma
NCI-H23 = experiment: NCI 60 growth inhibition; type: cell-based, human; settings: NCI-H23, Non-Small Cell Lung Cancer
MDA-MB-435 = experiment: NCI 60 growth inhibition; type: cell-based, human; settings: MDA-MB-435, Melanoma
SNB-75 = experiment: NCI 60 growth inhibition; type: cell-based, human; settings: SNB-75, CNS Cancer
K-562 = experiment: NCI 60 growth inhibition; type: cell-based, human; settings: K-562, Leukemia
SNB-19 = experiment: NCI 60 growth inhibition; type: cell-based, human; settings: SNB-19, CNS Cancer
RXF 393 = experiment: NCI 60 growth inhibition; type: cell-based, human
SK-MEL-28 = experiment: NCI 60 growth inhibition; type: cell-based, human; settings: SK-MEL-28, Melanoma
[1] = tested on: primary AML cell line AML2; experiment: Anti-leukemic activity, Annexin V/7-AAD flow cytometry; type: cell-based, human; settings: Homo sapiens, 24 h, 24 h of drug exposure; read-out: AML#2 (EC50)
Protocol: as §1

[2] = tested on: primary AML cell line AML1; experiment: as above; type: cell-based, human; settings: Homo sapiens, AML1, 24 h, 24 h of drug exposure; read-out: AML#1 (EC50)
Protocol: as §1

[3] = tested on: NCI panel of 60 human cancer cell lines; experiment: NCI 60 growth inhibition, ranges over groups of cell lines; type: cell-based; settings: read-out: GI50
Protocol: The above triazole derivatives of melampomagnolide B were evaluated for growth inhibitory properties against an NCI panel of 60 human cancer cell lines derived from nine human cancer cell types, grouped into disease sub-panels that represent leukemia, lung, colon, central nervous system (CNS), melanoma, renal, ovary, breast, and prostate cancer cells. Growth inhibitory (GI50) effects were measured as a function of the variation of optical density as a percentage of control.

[4] = Homo sapiens, HT-29, Colon Cancer, Table 2
[5] = Homo sapiens, RXF 393, RXF 393, Renal Cancer, Table 2

## C=C1C(=O)O[C@H]2[C@H]1CC/C(Cn1cc(-c3ccccc3C(F)(F)F)nn1)=C\CC[C@@]1(C)O[C@@H]21 [JVM 4-59]
M9 ENL1 cell line
  pEC50: 5.41
SW-620; Table 3
  GI50: 1240 nM
MDA-MB-231/ATCC; Table 3
  GI50: 1640 nM
SK-OV-3; Table 3
  GI50: 17.3 µM
SF-539; Table 3
  GI50: 1760 nM
SF-268; Table 3
  GI50: 2090 nM
CCRF-CEM; Table 3
  GI50: 760 nM
MOLT-4; Table 3
  GI50: 3030 nM
MDA-MB-468; Table 3
  GI50: 1140 nM
HT29; HT29, Colon Cancer, Table 3
  GI50: 1790 nM
BT-549; Table 3
  GI50: 2400 nM
OVCAR-5; Table 3
  GI50: 2460 nM
ACHN; Table 3
  GI50: 1450 nM
MALME-3M; Table 3
  GI50: 1700 nM
NCI-H23; Table 3
  GI50: 1750 nM
MDA-MB-435; Table 3
  GI50: 2180 nM
SNB-75; Table 3
  GI50: 2.97 µM
K-562; Table 3
  GI50: 2400 nM
SNB-19; Table 3
  GI50: 10.8 µM
RXF 393; RXF 393, Renal Cancer, Table 3
  GI50: 1070 nM
SK-MEL-28; Table 3
  GI50: 1750 nM

## C=C1C(=O)O[C@H]2[C@H]1CC/C(Cn1cc(-c3cccc(Cl)c3)nn1)=C\CC[C@@]1(C)O[C@@H]21 [JVM 4-25, (1aR,7aS,10aS,10bS,E)-5((4-(3-Chlorophenyl)-1H-1,2,3-triazol-1-yl)methyl)-1a-methyl-8-methylene-2,3,6,7,7a,8,10a,10b-octahydrooxireno[2′,3′:9,10]cyclodeca[1,2-b]furan-9(1aH)-one]
[1]
  pEC50: 5.77
[2]
  pEC50: 6.00
SW-620; Homo sapiens, Table 2
  GI50: 330 nM
MDA-MB-231/ATCC; Homo sapiens, Table 2
  GI50: 1090 nM
SK-OV-3; Homo sapiens, Table 2
  GI50: 3.67 µM
SF-539; Homo sapiens, Table 2
  GI50: 250 nM
SF-268; Homo sapiens, Table 2
  GI50: 1590 nM
CCRF-CEM; Homo sapiens, Table 2
  GI50: 200 nM
MOLT-4; Homo sapiens, Table 2
  GI50: 310 nM
MDA-MB-468; Homo sapiens, Table 2
  GI50: 560 nM
HT29; [4]
  GI50: 510 nM
BT-549; Homo sapiens, Table 2
  GI50: 770 nM
OVCAR-5; Homo sapiens, Table 2
  GI50: 1210 nM
ACHN; Homo sapiens, Table 2
  GI50: 180 nM
MALME-3M; Homo sapiens, Table 2
  GI50: 1200 nM
NCI-H23; Homo sapiens, Table 2
  GI50: 1580 nM
MDA-MB-435; Homo sapiens, Table 2
  GI50: 590 nM
SNB-75; Homo sapiens, Table 2
  GI50: 1.16 µM
K-562; Homo sapiens, K562, Table 2
  GI50: 400 nM
SNB-19; Homo sapiens, Table 2
  GI50: 2.4 µM
RXF 393; [5]
  GI50: 550 nM
SK-MEL-28; Homo sapiens, Table 2
  GI50: 350 nM
[3]; all the cell lines in the leukemia sub-panel
  GI50: 100 to 500 nM
[3]; most of the solid tumor cell lines in the panel
  GI50: 160 to 990 nM

## C=C1C(=O)O[C@H]2[C@H]1CC/C(Cn1cc(-c3ccsc3)nn1)=C\CC[C@@]1(C)O[C@@H]21 [JVM 4-53]
M9 ENL1 cell line
  pEC50: 5.57
SW-620; Table 3
  GI50: 1320 nM
MDA-MB-231/ATCC; Table 3
  GI50: 1750 nM
SK-OV-3; Table 3
  GI50: 17.4 µM
SF-539; Table 3
  GI50: 1800 nM
SF-268; Table 3
  GI50: 2530 nM
CCRF-CEM; Table 3
  GI50: 1630 nM
MOLT-4; Table 3
  GI50: 2590 nM
MDA-MB-468; Table 3
  GI50: 1280 nM
HT29; HT29, Colon Cancer, Table 3
  GI50: 1660 nM
BT-549; Table 3
  GI50: 1800 nM
OVCAR-5; Table 3
  GI50: 2290 nM
ACHN; Table 3
  GI50: 1320 nM
MALME-3M; Table 3
  GI50: 1610 nM
NCI-H23; Table 3
  GI50: 1820 nM
MDA-MB-435; Table 3
  GI50: 1850 nM
SNB-75; Table 3
  GI50: 3.23 µM
K-562; Table 3
  GI50: 2510 nM
SNB-19; Table 3
  GI50: 9.49 µM
RXF 393; RXF 393, Renal Cancer, Table 3
  GI50: 1070 nM
SK-MEL-28; Table 3
  GI50: 1810 nM

## C=C1C(=O)O[C@H]2[C@H]1CC/C(Cn1cc(-c3ccccc3)nn1)=C\CC[C@@]1(C)O[C@@H]21 [JVM 3-74, (1aR,7aS,10aS,10bS,E)-1a-Methyl-8-methylene-5-((4-phenyl-1H-1,2,3-triazol-1-yl)methyl)-2,3,6,7,7a,8,10a,10b-octahydrooxireno[2′,3′:9,10]cyclodeca[1,2-b]furan-9(1aH)-one]
M9 ENL1 cell line; M9-ENL1, 24 h
  pEC50: 5.72
SW-620; Homo sapiens, Table 2
  GI50: 1500 nM
MDA-MB-231/ATCC; Homo sapiens, Table 2
  GI50: 2000 nM
SK-OV-3; Homo sapiens, Table 2
  GI50: 9.95 µM
SF-539; Homo sapiens, Table 2
  GI50: 2010 nM
SF-268; Homo sapiens, Table 2
  GI50: 5630 nM
CCRF-CEM; Homo sapiens, Table 2
  GI50: 990 nM
MOLT-4; Homo sapiens, Table 2
  GI50: 1290 nM
MDA-MB-468; Homo sapiens, Table 2
  GI50: 950 nM
HT29; [4]
  GI50: 1790 nM
BT-549; Homo sapiens, Table 2
  GI50: 2650 nM
OVCAR-5; Homo sapiens, Table 2
  GI50: 5700 nM
ACHN; Homo sapiens, Table 2
  GI50: 940 nM
MALME-3M; Homo sapiens, Table 2
  GI50: 1170 nM
NCI-H23; Homo sapiens, Table 2
  GI50: 5380 nM
MDA-MB-435; Homo sapiens, Table 2
  GI50: 2370 nM
SNB-75; Homo sapiens, Table 2
  GI50: 6.21 µM
K-562; Homo sapiens, K562, Table 2
  GI50: 1760 nM
SNB-19; Homo sapiens, Table 2
  GI50: 7.87 µM
RXF 393; [5]
  GI50: 1550 nM
SK-MEL-28; Homo sapiens, Table 2
  GI50: 1060 nM
[3]; 60 cell, several cell lines in the NCI 60 cell panel
  GI50: 200 to 990 nM

Reference: patent US10428082B2, “Triazole derivatives of melampomagnolide B and methods of use thereof” (BioVentures, LLC, priority 2016, dated 2019)
